According to patent US8841463B2, “Cathepsin C inhibitors” (GlaxoSmithKline Intellectual Property Development Limited, priority 2011, dated 2014):
Where a name gives a salt, the structure may show the parent alone.

Target: recombinant human cathepsin C (Homo sapiens, UniProt P53634)
Assay: Recombinant Cathepsin C in vitro assay (cleavage of fluorogenic substrate H-Ser-Tyr-AMC)
Assay type: biochemical
Conditions: average of two experiments; one hour preincubation, pH 5.5, room temperature; read-out: concentration giving 50% cathepsin C inhibition
Protocol: B. Recombinant Cathepsin C In Vitro Assay:
The activity of recombinant human cathepsin C was measured by the cleavage of a fluorogenic substrate, H-Ser-Tyr-AMC. Briefly, 24 pM cathepsin C was incubated with test compound (e.g. inhibitor) in a buffer consisting of 50 mM sodium acetate, 30 mM sodium chloride, 1 mM CHAPS, 1 mM dithiothreitol, 1 mM EDTA, pH 5.5 at room temperature for one hour. After one hour of incubating test compound with cathepsin C, the activity assay was initiated by the addition of an equal volume of 0.010 mM H-Ser-Tyr-AMC in the same buffer. After one hour, the activity assay was stopped by the addition of ⅕ volume of 100 μM E-64. The reaction product was measured on a fluorescence reader set at an excitation wavelength of 360 nm and emission wavelength of 460 nm and equipped with a 400 nm dichroic mirror.

Chain of recombinant human cathepsin C (P53634 25-463): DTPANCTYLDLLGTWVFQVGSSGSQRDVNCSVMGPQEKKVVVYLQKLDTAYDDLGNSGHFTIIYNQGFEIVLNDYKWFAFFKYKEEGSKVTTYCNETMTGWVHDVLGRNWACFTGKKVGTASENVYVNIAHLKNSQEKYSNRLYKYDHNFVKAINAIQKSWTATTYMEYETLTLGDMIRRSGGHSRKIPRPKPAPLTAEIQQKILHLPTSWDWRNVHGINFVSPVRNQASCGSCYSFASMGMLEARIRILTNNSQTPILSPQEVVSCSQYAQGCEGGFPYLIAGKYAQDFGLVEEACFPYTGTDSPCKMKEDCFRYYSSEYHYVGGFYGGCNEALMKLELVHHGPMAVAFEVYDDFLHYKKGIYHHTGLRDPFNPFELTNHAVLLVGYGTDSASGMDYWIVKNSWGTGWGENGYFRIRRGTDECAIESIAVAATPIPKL

CC[C@@H](/C=C/C(=O)N1CCc2ccccc21)NC(=O)C1(N)CCOCC1 [Example 1, 4-amino-N-[(1S,2E)-4-(2,3-dihydro-1H-indol-1-yl)-1-ethyl-4-oxo-2-buten-1-yl]tetrahydro-2H-pyran-4-carboxamide hydrochloride]
IC50: < 1 nM

CC(C)C[C@@H](/C=C/C(=O)N1CCc2ccccc21)NC(=O)C1(N)CCOCC1 [Example 2, 4-amino-N-[(1S,2E)-4-(2,3-dihydro-1H-indol-1-yl)-1-(2-methylpropyl)-4-oxo-2-buten-1-yl]tetrahydro-2H-pyran-4-carboxamide hydrochloride]
IC50: < 1 nM
